# According to patent US5593678A, “Protection of teleost fish” (University of Georgia Research Foundation, priority 1994, dated 1997):
# Read-outs that look alike come from different tables or passages of the source.
# Columns and labels:
# [1] = system: NCC (lysis of IM-9 target cells); settings: 0.05 mM (50 μM), immersion, 10, 24, 48 hours
# Method: FIG. 9. In vivo NCC responses to vanadate treatment. Catfish were acclimated in 10 gal tanks for 24 hours prior to treatment. Vanadate was added directly to the tanks and cytotoxicity assays of NCC from treated and control fish were conducted at 10, 24 and 48 hours post-treatment.
# Fish were treated by immersion in 10 gal (static flow) tanks containing the appropriate inhibitor concentrations in 15 liters of dechlorinated water (19°-20° C.). All fish were acclimated to tank conditions 24 hours prior to treatment. Each tank housed twenty fish (approximately 4-5 inches in length). At 24 hour intervals 50% of the water was changed.
# To determine the ability of vanadate to act in vivo to activate NCC responses, fish were treated by immersion with 0.050 mM vanadate and cytotoxicity was determined at 10, 24 and 48 hours post-treatment.
# [2] = system: human prostate gland phosphotyrosyl protein phosphatase; settings: cited from earlier work
# [3] = system: NCC in anterior kidney tissue; settings: for % NCC in anterior kidney tissue / Total cells/ml: 50 μM
# calcineurin = settings: cited from earlier work
# Na^+ /K^+ ATPase = settings: cited from earlier work
# protein phosphatase = settings: cited from earlier work
# [4] = system: NCC from stressed fish (lysis of IM-9 target cells); settings: 100:1, control 0.9
# Method: (§1) A ^51 Cr release assay was used to determine cytotoxicity. Target cells at 1-2×10^6 cells/ml were labeled with 100 μCi of sodium chromate (Amersham, Arlington Heights, Ill.). NCC effector cells were treated as previously described [Evans et al. (1988) supra], centrifuged (500 g), and resuspended in media and added at different E:T ratios to the labeled target cells in round-bottomed 96-well microtiter plates. This mixture was incubated (25° C.) for 4-6 hours and 100 μl of each supernatant was removed to determine radioactivity (Beckman Biogamma II Counter; Beckman Instruments, Irvine, Calif.). The results are expressed as either percentage specific release (SR)=[(test release--spontaneous release)/(total release--spontaneous release)]×100; percent inhibition=[(percentage control SR--percentage test SR)/percentage control SR]×100; and percentage increase=(percentage test SR--percentage control SR)/percentage control SR.
# A common observation in fish exposed to stress, e.g., toxicants, drastic temperature changes, handling, etc., is the temporary loss of NCC activity.
# [5] = system: muscles and liver; cardiac performance; settings: rats; cited from earlier work
# [6] = system: cellular carbohydrate biosynthetic pathways; settings: cited from earlier work
# Edwardsiella ictaluri [7] = settings: approximately 10 μM to approximately 25 μM, 18-24 hours; FIG. 10; listed as sodium orthovanadate
# [8] = system: NCC (lysis of IM-9 target cells); settings: for effect of removal of inhibitor on NCC activation (words): 90 minutes treatment, washed, E:T 40:1; for enhancement of destruction of IM-9 target cells (fold): over control, lower E:T ratios
# Method: FIG. 4. Individual and combined effects of phosphatase inhibitors on NCC cytotoxicity, NCC (7×10^5 cells) were incubated with either media (.diamond.), vanadate (Δ) (5 mM). NaF (.smallcircle.) (20 mM), or both vanadate and NaF (.quadrature.) for the indicated time periods before addition to labeled IM-9 target cells.
# FIG. 5. Effects of removal of Na3 VO4 on NCC activation. NCC were harvested, incubated for three hours, washed, counted and added to duplicate tubes containing either media alone or media containing 2.5, 5 and 10 mM vanadate. Following a 90 minutes incubation time, the cells were either washed and resuspended in media (closed circles) or added directly (open circles) to wells containing ^51 chromium labeled IM-9 target cells (E:T ratio 40:1).
# FIG. 6. Effects of removal of NaF on NCC activation. NCC were harvested, incubated for three hours in media, washed, counted and added to duplicate tubes containing media alone or in the presence of 5, 10 and 20 mM NaF. Following a 90 minutes treatment time, NCC were either washed (closed circles) or added directly (open circles) to wells containing labeled IM-9 target cells (E:t ratio 40:1).
# FIG. 7. Effects of Na3 VO4 on NCC with different levels of cytotoxicity. NCC were harvested from anterior kidneys of fish from three different sources. The cells were incubated in media for three hours, washed, counted and added to test tubes containing either media alone or media with 2.5, 5 and 10 mM vanadate. Following a two hours incubation time, the effectors were added to wells containing labeled IM-9 cells at a 40:1 E:T ratio.
# FIG. 8. Effects of NaF on NCC with different levels of cytotoxicity. NCC were harvested from anterior kidneys of fish from three different sources. The cells were incubated in media for three hours, washed, counted and added to media or media with 5, 10 and 20 mM NaF. Following a two-hour incubation, NCC were added to wells containing ^51 chromium labeled IM-9 target cells for a final E:T ratio of 40:1.
# as §1
# NCC were obtained as previously described [Graves et al. (1984) supra]; Evans et al. (1984) supra]. […] NCC were then washed and resuspended at 20×10^6 cells/ml, and 35 μl aliquots were added to test tubes containing 315 μl media only (media control) or media containing the indicated treatments. After 2 hr incubation, the cells were mixed with ^51 Cr-labeled IM-9 target cells and incubated for 4-6 hours ([…]). Supernatants were harvested and cytotoxicity levels were calculated as previously described.
# Membrane phosphorylation is maintained through a delicate equilibrium between cellular kinase and phosphatase activities.
# In further studies, NCC were treated with different concentrations of protein phosphatase inhibitors for two hours and labeled IM-9 target cells were added for a four-hour microcytotoxicity assay (Table 8).
# Edwardsiella ictaluri [9] = system: Edwardsiella ictaluri
# Method: FIG. 11. Effects of treatment of catfish with vanadate prior to infection with E. ictaluri. In two different experiments (A and B), catfish were treated with vanadate (indicated concentrations) 48 hours prior to infection with Edwardsiella. Percent cumulative mortality for each treatment group is given. Numbers of fish were 12-15/group/experiment.
# Thus, catfish were treated (by immersion) with 0.05 mM vanadate for 48 hours prior to infection with Edwardsiella ictaluri.
# diabetic animals = settings: cited from earlier work
substance,measurement,setting,value
sodium orthovanadate,in vivo NCC cytotoxicity (words),[1]; listed as orthovanadate,significantly increased cytotoxicity 48 hours post-treatment
same,in vivo NCC cytotoxicity (words),[1]; listed as vanadate,large increases in cytotoxicity by 48 hours
same,human prostate gland phosphotyrosyl protein phosphatase,[2],"fluoride, but not vanadate inhibited human prostate gland phosphotyrosyl protein phosphatase"
same,% NCC in anterior kidney tissue,"[3]; 3 hours post-treatment, control 60",51%
same,Total cells/ml,"[3]; 3 hours, control 3.2",3.1 cells/ml × 10^0
same,Total cells/ml,"[3]; 24 hours, control 2.6",2.8 cells/ml × 10^0
same,% NCC in anterior kidney tissue,"[3]; 24 hours, control 55",60%
same,Total cells/ml,"[3]; 48 hours, control 2.1",3.5 cells/ml × 10^0
same,% NCC in anterior kidney tissue,"[3]; 48 hours, control 52",66%
same,Total cells/ml,"[3]; 72 hours, control 2.3",3.1 cells/ml × 10^0
same,% NCC in anterior kidney tissue,"[3]; 72 hours, control 70",72%
same,Total cells/ml,"[3]; 96 hours, control 3.6",1.6 cells/ml × 10^0
same,% NCC in anterior kidney tissue,"[3]; 96 hours, control 61",78%
same,effect on total number of cells and percentage NCC in anterior kidney tissue,[3]; in vivo,not due to fluctuations in the total number of cells nor in the percentage of NCC
same,calcineurin-mediated dephosphorylation,calcineurin,"fluoride, but not vanadate inhibited"
same,Na^+ /K^+ ATPase inhibition,Na^+ /K^+ ATPase,significantly inhibited
same,protein phosphatase activity,protein phosphatase,vanadate but not fluoride inhibited protein phosphatase activity
same,Percent Specific Release (stressed fish),[4]; Na3 VO4 5.0 mM,9.9%
same,Percent Specific Release (stressed fish),[4]; Na3 VO4 10.0 mM,13.1%
same,cardiac performance,[5],improved cardiac performance
same,glucose transport into muscles and liver,[5],stimulated glucose transport into muscles and liver
same,glucose oxidation,[6],stimulation of glucose oxidation
same,glycogen synthetase activity,[6],stimulation of glycogen synthetase activity
same,insulin activity,[6],prolongation of insulin activity
same,insulin binding,[6],augmentation of insulin binding
same,mortality of infected catfish (words),Edwardsiella ictaluri [7],mortality was reduced
same,Percent Specific Release,"[8]; 5 mM, E:T 10, media 39",63%
same,Percent Specific Release,"[8]; 5 mM, E:T 25, media 4",29%
same,Percent Specific Release,"[8]; 5 mM, E:T 50, media 21",46%
same,Percent Specific Release,"[8]; 10 mM, E:T 10, media 39",62%
same,Percent Specific Release,"[8]; 10 mM, E:T 25, media 4",40%
same,Percent Specific Release,"[8]; 10 mM, E:T 50, media 21",49%
same,effect of removal of inhibitor on NCC activation (words),[8],slightly reduced levels of NCC cytotoxicity
same,effect of removal of inhibitor on NCC activation (words),[8]; listed as sodium vanadate,largely retained
same,enhancement of destruction of IM-9 target cells (fold),[8]; listed as Sodium vanadate,approximately six- to eightfold
same,enhancement of destruction of IM-9 target cells (fold),[8]; listed as sodium vanadate,as much as six- to eightfold
same,reduction in mortality,"Edwardsiella ictaluri [9]; 0.05 mM pretreatment 48 hours, FIG. 11A",27%
same,reduced mortality,"Edwardsiella ictaluri [9]; 0.05 mM pretreatment, 13-14 days post infection, FIG. 11B",54%
same,mortality / resistance after pretreatment (words),"Edwardsiella ictaluri [9]; 0.05 mM, 48 hours prior to infection, listed as sodium orthovanadate",produced resistance in catfish against the Edwardsiella pathogen
same,survival at 28 days post-infection,Edwardsiella ictaluri [9]; experiment B,all treated catfish were still alive
same,blood glucose levels in diabetic animals,"diabetic animals; oral, 15 μM in drinking water",normalization of blood glucose levels in diabetic animals
same,time to reversal of effects after suspension of treatment,diabetic animals; rats,two
